Source: article PMC11173485, “Connecting GSK-3β Inhibitory Activity with IKK-β or ROCK-1 Inhibition to Target Tau Aggregation and Neuroinflammation in Alzheimer’s Disease—Discovery, In Vitro and In Cellulo Activity of Thiazole-Based Inhibitors” (Molecules, 2024)
Where two headings read alike, the source gives them in different places.

Legend:
ROCK-1 = biological target: T1, ROCK-1 (Homo sapiens, UniProt Q13464); test: ADP-Glo kinase assay, ROCK-1 inhibition; assay type: biochemical; details: for inhibition at 10 µM: read-out: % inh. at 10 µM ROCK-1
T1 construct: purchased Promega
T1 sequence (Q13464 whole entry): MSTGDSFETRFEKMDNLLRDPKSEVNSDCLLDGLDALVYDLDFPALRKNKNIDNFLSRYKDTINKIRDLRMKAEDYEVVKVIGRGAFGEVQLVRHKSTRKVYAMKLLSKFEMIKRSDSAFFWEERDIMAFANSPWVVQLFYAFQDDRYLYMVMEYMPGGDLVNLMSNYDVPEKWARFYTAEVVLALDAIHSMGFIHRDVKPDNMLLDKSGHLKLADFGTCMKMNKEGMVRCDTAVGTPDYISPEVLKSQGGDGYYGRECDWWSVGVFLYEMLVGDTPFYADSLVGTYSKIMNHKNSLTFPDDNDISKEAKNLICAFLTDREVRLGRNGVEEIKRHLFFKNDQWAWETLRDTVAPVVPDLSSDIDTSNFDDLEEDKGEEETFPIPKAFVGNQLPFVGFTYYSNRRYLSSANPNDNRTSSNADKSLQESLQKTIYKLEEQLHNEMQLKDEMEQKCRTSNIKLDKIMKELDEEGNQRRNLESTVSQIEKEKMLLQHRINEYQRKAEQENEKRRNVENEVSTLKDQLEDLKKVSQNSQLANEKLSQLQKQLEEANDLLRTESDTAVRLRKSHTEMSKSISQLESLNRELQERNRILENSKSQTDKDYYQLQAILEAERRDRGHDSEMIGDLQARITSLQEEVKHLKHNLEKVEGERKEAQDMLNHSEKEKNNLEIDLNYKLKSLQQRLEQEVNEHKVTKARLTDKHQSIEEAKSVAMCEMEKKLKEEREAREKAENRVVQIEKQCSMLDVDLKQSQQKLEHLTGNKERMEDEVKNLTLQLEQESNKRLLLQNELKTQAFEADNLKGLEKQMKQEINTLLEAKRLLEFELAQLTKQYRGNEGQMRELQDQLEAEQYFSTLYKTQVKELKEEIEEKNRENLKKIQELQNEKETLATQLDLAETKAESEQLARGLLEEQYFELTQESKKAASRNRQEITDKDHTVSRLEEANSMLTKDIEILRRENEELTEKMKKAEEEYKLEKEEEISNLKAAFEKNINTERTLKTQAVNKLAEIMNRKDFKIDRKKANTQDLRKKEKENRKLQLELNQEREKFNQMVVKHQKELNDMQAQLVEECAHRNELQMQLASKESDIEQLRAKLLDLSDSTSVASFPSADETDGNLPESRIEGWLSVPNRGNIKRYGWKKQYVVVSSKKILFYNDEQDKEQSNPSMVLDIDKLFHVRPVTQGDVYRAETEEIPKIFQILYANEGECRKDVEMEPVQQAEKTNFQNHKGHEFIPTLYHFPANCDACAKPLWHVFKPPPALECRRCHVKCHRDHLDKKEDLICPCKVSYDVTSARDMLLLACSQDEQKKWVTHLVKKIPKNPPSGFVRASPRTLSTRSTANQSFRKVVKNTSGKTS
Text: We evaluated the inhibitory activity of the final compounds against GSK-3β, IKK-β, and ROCK-1 kinases using the commercially available ADP-Glo™ kinase assay. The method was based on the measurement of luminescence that correlates with kinase activity. […] The latter are inhibitors of the kinases of interest and were integral to the design of our studies.
Promega’s Kinase Enzyme Systems (Promega; Madison, WI, USA) were used to determine the activities of the tested compounds against the human recombinant kinases GSK-3β, IKK- β, and ROCK-1. The assays were performed according to the provided manufacturer’s instruction, based on the optimized conditions of the enzymatic reactions, using the low-volume, white polystyrene, 384-well plates. The ADP-Glo™ Assay (Promega; Madison, WI, USA) was used for bioluminescent detection of the kinase activity. Stock solutions of the tested compounds in DMSO (1mM) were diluted with the Kinase Assay Buffer before use (40 mM Tris, pH 7.5, enriched with 50 µM dithiothreitol; DTT), giving the final desired concentrations. The kinase enzymes, substrates, and ATP solutions were also diluted with the assay buffer prior to use. The GSK-3β, IKK-β, and ROCK-1 substrates were derived from human muscle glycogen synthase 1, human IkBA, and human 40S ribosomal protein S6, respectively. […] The DMSO solution (1% in well) was used in the blank samples instead of the tested inhibitors. After the incubation period, ATP (25 µM per well in the case of GSK-3β and IKK-β kinases; 5 µM per well in the case of ROCK-1 kinase) and an appropriate enzyme substrate (0.2 µg/µL in well) were added to start the enzymatic reaction. The reaction mixture was kept at room temperature for 1 h; then, the ADP-Glo™ reagent was added, to terminate the kinase reaction and deplete any remaining ATP. After 40 min, a second reagent (Kinase Detection Reagent) was applied to convert the obtained ADP to ATP and to generate light from the newly synthesized ATP using a luciferase/luciferin reaction. The mixture was incubated for another 30 min at room temperature before the luminescence was measured. The calculations of the percent of kinases’ inhibition by tested compounds were based on the equation 100 − (S/B) × 100; S and B are the enzyme activities with and without the tested sample, respectively. […]. IC50 results were obtained using nonlinear regression (GraphPad Prism 9; GraphPad Software, San Diego, CA, USA) by plotting the residual enzyme activities against the applied inhibitor concentration. Each compound was evaluated in two independent experiments, with every data point collected in duplicate.

[1] = Cytotoxicity, PrestoBlue cell viability assay in HT-22 cells; assay type: cell-based, mouse; details: mouse, HT-22 hippocampal neuronal cells, 24 h; for viability at 24 h, 1 µM: 1 µM (log C -6); for viability at 24 h, 1 µM / viability at 24 h, 10 µM / viability at 24 h, 50 µM / viability at 24 h, 100 µM / viability at 24 h, 0.1 µM: read-out: neurotoxicity in HT-22 cells, % of cell viability; for viability at 24 h, 10 µM: 10 µM (log C -5); for viability at 24 h, 50 µM: 50 µM (log C -4.3); for viability at 24 h, 100 µM: 100 µM (log C -4); for IC50 at 24 h: PrestoBlue, mean ± SEM, read-out: Cytotoxicity in HT-22 Cells (IC50 x¯ ± SEM µM)
Protocol: (§1) We assessed their cytotoxic effects at five concentrations (0.1, 1, 10, 50, and 100 µM) in HT-22 (mouse hippocampal neuronal cells) and BV-2 (mouse microglial cells) cell lines using a fluorometric assay with PrestoBlue™ cell viability reagent (Table 4, Table S2 in the SI).
(§2) Mouse microglial cells (BV-2) were a generous gift from Professor Bozena Kaminska-Kaczmarek of the Laboratory of Molecular Neurobiology, Neurobiology Center, Nencki Institute of Experimental Biology, Polish Academy of Sciences, Warsaw, Poland. Cells were cultured in Dulbecco’s modified Eagle’s Medium-high glucose (DMEM, Glutamx Thermo Fisher, Waltham, MA, USA) supplemented with 10% inactivated fetal bovine serum (Thermo Fisher), 100 IU/mL penicillin (Merck), and 100 µg/mL streptomycin (Merck). Cells were cultured in flasks (area 175 cm^2, Nunc) and incubated at 37 °C, 5% CO2. To evaluate the level of NO, IL-6, and TNF-α and the effectiveness of the compounds tested, BV-2 microglia cells were cultured in 96-well culture plates (5 × 10^4 cells per well, Falcon). For the measurement of cell viability and cell membrane damage, cells were placed in 96-well culture plates (2 × 10^4 cells per well, Falcon). Before the tests, cells were grown for 24 h in the incubator (37 °C, 5% CO2). Mouse Hippocampal Neuronal Cell Line (HT-22) was a generous gift from Dr Bartosz Pomierny of the Department of Biochemical Toxicology, Jagiellonian University Medical College, Krakow, Poland. Cells were cultured in Dulbecco’s modified Eagle’s Medium-high glucose (DMEM, Glutamx Thermo Fisher) supplemented with 10% inactivated fetal bovine serum (Thermo Fisher), 100 IU/mL penicillin (Merck), and 100 µg/mL streptomycin (Merck). Cells were cultured in flasks (area 175 cm^2, Nunc) and incubated at 37 °C, 5% CO2. For the measurement of cell viability and neuroprotective effects against okadaic acid, cells were placed in 96-well culture plates (2 × 10^4 cells per well, Falcon). Before the tests, cells were grown for 24 h in the incubator (37 °C, 5% CO2).
(§3) Cell viability was evaluated using the PrestoBlue reagent (Thermo Fisher), according to the manufacturer’s procedures. Following 24 h of incubation with the tested molecule, PrestoBlue reagent was added to a microplate well in an amount equal to one-tenth of the remaining medium volume. The resulting mixture was incubated for 15 min at 37 °C, and the fluorescence intensity (EX 530; EM 580 nm) was measured using the plate reader POLARstar Omega, (BMG Labtech, Ortenberg, Germany). The results (viability values) are provided as a percentage of live cells with respect to DMSO (control sample).
(§4) Cytotoxic effects of selected inhibitors in HT-22 mouse hippocampal neuronal cells and BV-2 mouse microglial cells
(§5) Table S2. Cytotoxic effects of selected inhibitors in HT-22 mouse hippocampal neuronal cells and BV-2 mouse microglial cells. neurotoxicity in HT-22 cellsa immunotoxicity in BV-2 cellsa […]
(§6) a % of cell viability at the given concentration of tested compound; mean value ± standard deviation (SD) of triplicates; b half maximal inhibitory concentration of the tested compound; mean value ± standard error of the mean (SEM) of triplicates; c data obtained in log C of 39 of -8.5; -7.5; -6.5; -5.5; -5, respectively; d data obtained in log C of 49 of -7.5; -6.5; -5.5; -4.5; -4. respectively; nt, not tested.

[2] = system: HT-22 (mouse hippocampal neuronal cells); test: as above; assay type: cell-based; details: for effect on cell viability in HT-22 cells (in words): 0.1, 1, 10, 50, and 100 µM
Protocol: as §1, §2, §3, §4, §5, §6

SMILES | inhibition at 10 µM (ROCK-1; mean ± SD) | viability at 24 h, 1 µM [1] | viability at 24 h, 10 µM [1] | viability at 24 h, 50 µM [1] | viability at 24 h, 100 µM [1] | IC50 at 24 h [1] | viability at 24 h, 0.1 µM [1] | effect on cell viability in HT-22 cells (in words) [2] | IC50 (ROCK-1; mean ± SEM, ATP 5 µM) | effect on viability of HT-22 cells at concentrations up to 10 µM (in words) [2] | inhibition at 1 µM (ROCK-1; 1 μM (footnote), mean ± SD, read-out: % inh. ROCK-1, tested at inhibitor screening concentration of 1 μM) | IC50 (ROCK-1)
CC(C)C(=O)Nc1cc(-c2cc3c(s2)C(=O)NC(C)(C)N3)ccn1 [Compound 39, N-(4-(2,2-Dimethyl-4-oxo-1,2,3,4-tetrahydrothieno [3,2-d]pyrimidin-6-yl)pyridin-2-yl)isobutyramide] | 32% | 84% | 55% | 35% | 29% | 8.4 ± 5.3 µM | 91% | decreased cells’ viability |  |  |  | 
CC1(C)NC(=O)c2sc(-c3ccnc(NC(=O)C4CC4)c3)cc2N1 [Compound 40, N-(4-(2,2-Dimethyl-4-oxo-1,2,3,4-tetrahydrothieno [3,2-d]pyrimidin-6-yl)pyridin-2-yl)-cyclopropanecarboxamide] |  | 105% | 71% | 28% | 21% | 19.9 ± 4.1 µM | 100% | decreased cells’ viability | 1.76 ± 0.109 µM |  |  | 
CC1(C)NC(=O)c2sc(-c3ccnc(NC(=O)C4CCC4)c3)cc2N1 [Compound 41, N-(4-(2,2-Dimethyl-4-oxo-1,2,3,4-tetrahydrothieno [3,2-d]pyrimidin-6-yl)pyridin-2-yl)-cyclobutanecarboxamide] | 48% |  |  |  |  |  |  | decreased cells’ viability |  |  |  | 
CC(C)C(=O)Nc1cc(-c2cc(NC(N)=O)c(C(N)=O)s2)ccn1 [Compound 48, 5-(2-Isobutyramidopyridin-4-yl)-3-ureidothiophene-2-carboxamide] | < 10% | 89% | 77% | 52% |  | 36.6 ± 4.3 µM | 92% | decreased cells’ viability |  |  |  | 
NC(=O)Nc1cc(-c2ccnc(NC(=O)C3CC3)c2)sc1C(N)=O [Compound 49, 5-(2-(Cyclopropanecarboxamido)pyridin-4-yl)-3-ureidothiophene-2-carboxamide] |  | 102% | 101% | 88% | 76% | > 100 µM | 95% | no significant decrease in cell viability |  | did not decrease the viability of the cells |  | 
NC(=O)Nc1cc(-c2ccnc(NC(=O)C3CCC3)c2)sc1C(N)=O [Compound 50, 5-(2-(Cyclobutanecarboxamido)pyridin-4-yl)-3-ureidothiophene-2-carboxamide] |  |  |  |  |  |  |  | no significant decrease in cell viability |  |  | < 10% | 
NC(=O)Nc1cc(-c2cccc(NC(=O)C3CC3)c2)sc1C(N)=O [Compound 58, 5-(3-(Cyclopropanecarboxamido)phenyl)-3-ureidothiophene-2-carboxamide] |  | 92% | 89% | 54% | 45% | 67.1 ± 14.5 µM | 94% | decreased cells’ viability |  | did not decrease the viability of the cells |  | 
O=C1NC2(CCCC2)Nc2cc(-c3ccnc(NC(=O)C4CC4)c3)sc21 [Compound 60, N-(4-(4’-Oxo-3’,4’-dihydro-1’H-spiro[cyclopentane-1,2’-thieno [3,2-d]pyrimidin]-6’-yl)pyridin-2-yl)cyclopropanecarboxamide] |  | 105% | 62% | 36% | 31% | 9.7 ± 5.8 µM | 101% | decreased cells’ viability | 1.36 ± 0.079 µM |  |  | 
O=C1NC2(CCOC2)Nc2cc(-c3ccnc(NC(=O)C4CC4)c3)sc21 (centres unmarked) [Compound 62, N-(4-(4′-Oxo-3′,4,4′,5-tetrahydro-1′H,2H-spiro[furan-3,2′-thieno [3,2-d]pyrimidin]-6′-yl)pyridin-2-yl)cyclopropanecarboxamide] |  | 108% | 105% | 35% | 29% | 58.3 ± 10 µM | 106% | decreased cells’ viability | 2.31 ± 0.131 µM | did not decrease the viability of the cells |  | 2.3 µM
COc1nc(-c2ccnc(NC(=O)C3CC3)c2)sc1C(N)=O [II, reference compound] |  | 104% | 87% | 77% | 64% | > 100 µM | 107% | decreased cells’ viability |  |  |  | 
